Each compound was assayed on rabbit skeletal myofibrils (fast skeletal myofibrils) (assay: Activation of fast skeletal myofibrils (PUMA assay, AC1.4)). Conditions: calcium at pCa25, AC1.4 = concentration at which the compound increased the enzymatic activity.
Type: biochemical
Method: Preparation of fast skeletal myofibrils: Rabbit skeletal myofibrils were prepared based upon the method of Herrmann et al. (Biochem. 32(28):7255-7263(1993). Myofibrils were prepared from rabbit psoas muscle purchased from Pel-Freez Biologicals (Arkansas) within 2 days of ordering, stored on ice. Minced muscle was homogenized in 10 volumes of ice-cold “standard” buffer (50 mM Tris, pH 7.4, 0.1 M KOAc, 5 mM KCl, 2 mM dithiothreitol (DTT), 0.2 mM phenylmethylsulfonyl fluoride (PMSF), 10 μM leupeptin, 5 μM pepstatin, and 0.5 mM sodium azide) containing 5 mM ethylenediaminetetraacetic acid (EDTA) and 0.5% Triton X-100 using an Omni-Macro homogenizer. Myofibrils were recovered by low speed centrifugation (3000 rpm for 10 minutes) and washed 2 times in the Triton X-100 containing buffer to ensure removal of cellular membrane. Following the Triton washes, myofibrils were washed 3 times in “standard” buffer containing 2 mM magnesium acetate. A final wash in assay buffer (12 mM piperazine-1,4-bis(2-ethanesulfonic acid) (PIPES), pH 6.8, 60 mM KCl, 1 mM DTT) was performed and brought to 10% sucrose for flash freezing in liquid nitrogen and storage at −80° C.
Activation of Fast Skeletal Myofibrils: Fast fiber activators were identified by measuring the enzymatic activity of muscle myofibril preparations using the proprietary PUMA (trademark) (see, e.g., U.S. Pat. Nos. 6,410,254, 6,743,599, 7,202,051, and 7,378,254) assay system. Myofibril preparations consisted of rabbit skeletal muscle (approximately 90% fast fibers) that had been mechanically homogenized and washed with a detergent (Triton X-100) to remove cellular membranes. This preparation retained all of the sarcomeric components in a native conformation and the enzymatic activity was still regulated by calcium. Compounds were tested using a myofibril suspension and a level of calcium sufficient to increase enzymatic activity of the myofibrils to 25% of their maximal rate (termed pCa25). Enzymatic activity was tracked via a pyruvate kinase and lactate dehydrogenase-coupled enzyme system. This assay regenerates myosin-produced ADP into ATP by oxidizing NADH, producing an absorbance change at 340 nm. The buffering system was 12 mM PIPES, 2 mM MgCl2, 1 mM DTT at pH 6.8 (PM12 buffer). […] In Table 9, “Example Compound” refers to the compound labeled with the same number in Table 2.

SMILES	AC1.4 [µM]
CC[C@H](C)[C@H]1C(=O)Nc2ccccc2[C@@H]2COC(=O)N12 (single isomer, unassigned) [Compound 36]	0.09
CC[C@H](C)[C@H]1C(=O)Nc2ccccc2[C@H](CO)N1C(N)=O (single isomer, unassigned) [Compound 37]	0.26
CC[C@H](C)[C@H]1C(=O)Nc2ccccc2[C@H](C)N1C(=O)c1cnn(C)c1 (single isomer, unassigned) [Compound 38]	0.10
CC[C@H](C)[C@H]1C(=O)Nc2ccccc2[C@H](C)N1C(N)=O (single isomer, unassigned) [Compound 39]	0.17
CC[C@H](C)[C@H]1C(=O)Nc2ccccc2[C@@H](C(=O)OC)N1C(=O)c1cnn(C)c1 (single isomer, unassigned) [Compound 321]	0.12
CC[C@H](C)[C@H]1C(=O)Nc2ccccc2CN1c1nccc(=O)[nH]1 [Compound 3, (S)-3-((S)-sec-Butyl)-4-(6-oxo-1,6-dihydropyrimidin-2-yl)-1,3,4,5-tetrahydro-2H-benzo[e][1,4]diazepin-2-one]	0.09
CC[C@H](C)[C@H]1C(=O)Nc2ccccc2CN1c1nn[nH]n1 [Compound 4, (S)-3-((S)-sec-Butyl)-4-(2H-tetrazol-5-yl)-1,3,4,5-tetrahydro-2H-benzo[e][1,4]diazepin-2-one]	0.21
CC[C@H](C)[C@H]1C(=O)Nc2ccccc2CN1C(N)=O [Compound 5, (S)-3-((S)-sec-Butyl)-2-oxo-1,2,3,5-tetrahydro-4H-benzo[e][1,4]diazepine-4-carboxamide]	0.08
CC[C@H](C)[C@H]1C(=O)Nc2cncnc2CN1C(N)=O [Compound 11, (S)-7-((S)-sec-Butyl)-6-oxo-5,6,7,9-tetrahydro-8H-pyrimido[5,4-e][1,4]diazepine-8-carboxamide]	1.30
CC[C@H](C)[C@H]1C(=O)Nc2cc(F)cnc2CN1C(N)=O [Compound 13, (S)-3-((S)-sec-Butyl)-8-fluoro-2-oxo-1,2,3,5-tetrahydro-4H-pyrido[3,2-e][1,4]diazepine-4-carboxamide]	1.03
CC[C@H](C)[C@H]1C(=O)Nc2ccccc2-c2cnc(O)n21 [Compound 14, (S)-5-((S)-sec-Butyl)-3-hydroxy-5H-benzo[f]imidazo[1,5-d][1,4]diazepin-6(7H)-one]	0.15
CC[C@H](C)[C@H]1C(=O)Nc2ccccc2CN1C(C)=O [Compound 15, (S)-4-Acetyl-3-((S)-sec-butyl)-1,3,4,5-tetrahydro-2H-benzo[e][1,4]diazepin-2-one]	0.27
CC[C@H](C)[C@H]1C(=O)Nc2ccccc2CN1C(=O)c1cnn(CCO)c1 [Compound 16, (S)-3-((S)-sec-Butyl)-4-(1-(2-hydroxyethyl)-1H-pyrazole-4-carbonyl)-1,3,4,5-tetrahydro-2H-benzo[e][1,4]diazepin-2-one]	0.14
CC[C@H](C)[C@H]1C(=O)Nc2ccccc2CN1C(=O)CN [Compound 17, (S)-3-((S)-sec-Butyl)-4-glycyl-1,3,4,5-tetrahydro-2H-benzo[e][1,4]diazepin-2-one]	2.83
CC[C@H](C)[C@H]1C(=O)Nc2ccccc2CN1C(=O)CO [Compound 18, (S)-3-((S)-sec-Butyl)-4-(2-hydroxyacetyl)-1,3,4,5-tetrahydro-2H-benzo[e][1,4]diazepin-2-one]	0.31
CC[C@H](C)[C@H]1C(=O)Nc2ccccc2CN1C(=N)N [Compound 19, (S)-3-((S)-sec-Butyl)-2-oxo-1,2,3,5-tetrahydro-4H-benzo[e][1,4]diazepine-4-carboximidamide]	0.13
CC[C@H](C)[C@H]1C(=O)Nc2ccccc2CN1C(=O)OC [Compound 20, Methyl (S)-3-((S)-sec-butyl)-2-oxo-1,2,3,5-tetrahydro-4H-benzo[e][1,4]diazepine-4-carboxylate]	0.25

SMILES	AC1.4 [µM]
CC[C@H](C)[C@H]1C(=O)Nc2ccccc2CN1/C(=N/C#N)N(C)C [Compound 21, (S,E)-3-((S)-sec-Butyl)-N′-cyano-N,N-dimethyl-2-oxo-1,2,3,5-tetrahydro-4H-benzo[e][1,4]diazepine-4-carboximidamide]	0.18
CC[C@H](C)[C@H]1C(=O)Nc2ccccc2CN1/C(N)=N/C(=O)OC [Compound 22, Methyl ((E)-amino((S)-3-((S)-sec-butyl)-2-oxo-1,2,3,5-tetrahydro-4H-benzo[e][1,4]diazepin-4-yl)methylene)carbamate]	0.07
CC[C@H](C)[C@H]1C(=O)Nc2ccccc2CN1c1nc(O)cc(=O)[nH]1 [Compound 23, (S)-3-((S)-sec-Butyl)-4-(4-hydroxy-6-oxo-1,6-dihydropyrimidin-2-yl)-1,3,4,5-tetrahydro-2H-benzo[e][1,4]diazepin-2-one]	0.16
CC[C@H](C)[C@H]1C(=O)Nc2ccccc2CN1c1ncc(N)c(=O)[nH]1 [Compound 24, (S)-4-(5-Amino-4-hydroxypyrimidin-2-yl)-3-((S)-sec-butyl)-1,3,4,5-tetrahydro-2H-benzo[e][1,4]diazepin-2-one]	0.08
CC[C@H](C)[C@H]1C(=O)Nc2ccccc2CN1c1noc(=O)[nH]1 [Compound 25, 3-((S)-3-((S)-sec-Butyl)-2-oxo-1,2,3,5-tetrahydro-4H-benzo[e][1,4]diazepin-4-yl)-1,2,4-oxadiazol-5(4H)-one]	0.12
CC[C@H](C)[C@H]1C(=O)Nc2ccccc2CN1S(C)(=O)=O [Compound 26, (S)-3-((S)-sec-Butyl)-4-(methylsulfonyl)-1,3,4,5-tetrahydro-2H-benzo[e][1,4]diazepin-2-one]	0.78
CC[C@H](C)[C@H]1C(=O)Nc2ccccc2CN1S(=O)(=O)N(C)C [Compound 27, (S)-3-((S)-sec-Butyl)-N,N-dimethyl-2-oxo-1,2,3,5-tetrahydro-4H-benzo[e][1,4]diazepine-4-sulfonamide]	0.23
CC(=O)N1Cc2ccccc2NC(=O)[C@@H]1C1CCCCC1 [Compound 28, (S)-4-acetyl-3-cyclohexyl-1,3,4,5-tetrahydro-2H-benzo[e][1,4]diazepin-2-one]	0.28
NC(=O)N1Cc2ccccc2NC(=O)[C@@H]1C1CCCCC1 [Compound 29, (S)-3-Cyclohexyl-2-oxo-1,2,3,5-tetrahydro-4H-benzo[e][1,4]diazepine-4-carboxamide]	0.22
CC[C@H](C)[C@H]1C(=O)Nc2ccccc2CN1c1c(N2CC(O)C2)c(=O)c1=O [Compound 30, 3-((S)-3-((S)-sec-Butyl)-2-oxo-1,2,3,5-tetrahydro-4H-benzo[e][1,4]diazepin-4-yl)-4-(3-hydroxyazetidin-1-yl)cyclobut-3-ene-1,2-dione]	0.08
CC[C@H](C)[C@H]1C(=O)Nc2ccccc2CN1C(=O)NC [Compound 31, (S)-3-((S)-sec-Butyl)-N-methyl-2-oxo-1,2,3,5-tetrahydro-4H-benzo[e][1,4]diazepine-4-carboxamide]	0.21
CC[C@H](C)[C@H]1C(=O)Nc2ccccc2CN1C(=O)C(N)=O [Compound 33, 2-((S)-3-((S)-sec-Butyl)-2-oxo-1,2,3,5-tetrahydro-4H-benzo[e][1,4]diazepin-4-yl)-2-oxoacetamide]	1.14
CC[C@H](C)[C@H]1C(=O)Nc2ccccc2CN1c1nc(C)ns1 [Compound 34, (S)-3-((S)-sec-Butyl)-4-(3-methyl-1,2,4-thiadiazol-5-yl)-1,3,4,5-tetrahydro-2H-benzo[e][1,4]diazepin-2-one]	0.09
CC[C@H](C)[C@H]1C(=O)Nc2ccccc2CN1c1nccs1 [Compound 35, (3S)-3-[(2S)-Butan-2-yl]-4-(1,3-thiazol-2-yl)-1,3,4,5-tetrahydro-2H-1,4-benzodiazepin-2-one]	0.07
CC[C@H](C)[C@H]1C(=O)Nc2ccccc2C(C(=O)NC)N1C(N)=O (stereo partly drawn) [Compound 40, (3S)-3-((S)-sec-Butyl)-N^5-methyl-2-oxo-1,2,3,5-tetrahydro-4H-benzo[e][1,4]diazepine-4,5-dicarboxamide]	2.57
CC(C)[C@H]1C(=O)Nc2ccccc2CN1C(=O)c1cnn(C)c1 [Compound 41, (S)-3-Isopropyl-4-(1-methyl-1H-pyrazole-4-carbonyl)-1,3,4,5-tetrahydro-2H-benzo[e][1,4]diazepin-2-one]	0.96
CC[C@H](C)[C@H]1C(=O)Nc2cc(F)ccc2CN1C(=O)CO [Compound 42, (S)-3-((S)-sec-butyl)-8-fluoro-4-(2-hydroxyacetyl)-1,3,4,5-tetrahydro-2H-benzo[e][1,4]diazepin-2-one]	0.33

From patent publication US12441691B2 (Cytokinetics, Inc., priority 2020, dated 2025)
